B1: Monalizumab: α-NKG2A blocking monoclonal antibody (Innate Pharma) (antibody, chains of the INN, looked up, V domains shown)
VH: QVQLVQSGAEVKKPGASVKVSCKASGYTFTSYWMNWVRQAPGQGLEWMGRIDPYDSETHYAQKLQGRVTMTTDTSTSTAYMELRSLRSDDTAVYYCARGGYDFDVGTLYWFFDVWGQGTTVTVSS
VL: DIQMTQSPSSLSASVGDRVTITCRASENIYSYLAWYQQKPGKAPKLLIYNAKTLAEGVPSRFSGSGSGTDFTLTISSLQPEDFATYYCQHHYGTPRTFGGGTKVEIK

Ends that are not written are not given here.

The target of one assay is T1, HLA-E on the surface of Raji cells (Homo sapiens, UniProt P13747).
T1 construct: host or cells: Raji cells
The experiment in a line: HLA-E stabilisation assay (flow-cytometry). The assay is classed as cell-based. The note with it: HLA-E*0101/0101 Raji cells transfected with peptide, HLA-E surface expression after 16h by flow-cytometry; three independent replicates; Figure 1E; read-out: HLA-E upregulation (EC50). Here is the method:
For the HLA-E stabilization experiments, HLA-E*0101/0101-encoding Raji cells (German Collection of Microorganisms and Cell Cultures) were maintained in 90% RPMI 1640 + 10% heat-inactivated FCS (Thermo-Fisher). The cells were individually transfected with indicated concentrations of the LMP-1 peptides (Peptides&Elephants) using the Pierce Protein Transfection Reagent according to the manufacturer’s instructions (Thermo-Fisher). After 16h, the cells were either fixed and analyzed for the HLA-E expression by flow-cytometry as described below, or washed once with Opti-MEM I Reduced Serum Medium (Gibco) and subsequently used in NKG2A^+ NK cell inhibition experiments.
The following conjugated mouse anti-human mAB were used for flow-cytometry: PE-CD19 (4G7), BV421-CD56 (NCAM 16.2), BV510-NKG2A (131411), PE-CD71 (M-A712) (all: BD Biosciences), AF647-NKG2C (134591, R&D Systems), APC-HLA/E (3D12) (Biolegend). Dead cells were identified using 7-AAD, LIVE/DEAD Fixable Green or Near-IR Dead Cell Stain Kit (both: Thermo-Scientific). Flow-cytometry analysis was performed on a FACSCanto2 platform and FACSDiva Version 10.7.2 (BD).
Figure 1 LMP-1-derived peptides are associated with the development of EBV^+ lymphomas and inhibit NKG2A^+ NK cells. (A–D) Distribution of LMP-1 variants in patients with (A) asymptomatic reactivations (N=96), (B) symptomatic reactivations (N=96), (C) EBV^+HL (N=25), (D) EBV^+nHL (N=38). Fractions represent the relative frequency of the LMP-1 peptide GGDPHLPTL, GSDPHLPTL, GGDPHLPPL, GGDPPLPTL, GCDPHLPTL, GIDPHLPTL, GAGPHLPTL, GGDTPLPTL, GDDPHLPTL, GGDPHVPTL and GTDPHLPTL variants. ^+ The frequency of the LMP-1 variants was compared to the asymptomatic cohort by the Chi^2 Test. (E, F) HLA-E stabilisation assay. (E) HLA-E stabilisation assay: Raji cells were incubated with indicated concentrations of the positive control (VMAPRTLFL) or the LMP-1 peptide-derived GGDPHLPTL, GSDPHLPTL, GGDPHLPPL, GGDPPLPTL, GCDPHLPTL, GIDPHLPTL, GAGPHLPTL, GGDTPLPTL, GDDPHLPTL, GGDPHVPTL and GTDPHLPTL variants. The HLA-E surface expression was then assessed after 16h of co-culture by flow-cytometry. Plots represent the mean ( ± SD) of three independent replicates. Each peptide was compared to the positive control using RM one-way ANOVA (with the Geisser-Greenhouse correction). (F) NKG2A^+NKG2C^- NK cell inhibition assay: Raji cells were incubated with indicated concentrations of the positive control (VMAPRTLFL) or the LMP-1 peptide-derived GGDPHLPTL, GSDPHLPTL, GGDPHLPPL, GGDPPLPTL, GCDPHLPTL, GIDPHLPTL, GAGPHLPTL, GGDTPLPTL, GDDPHLPTL, GGDPHVPTL and GTDPHLPTL variants and were then co-cultured with pre-activated NKG2A^+NKG2C^- NK cells from 12 blood donors. Plots represent the mean ( ± SD) of 12 independent replicates. Each peptide was compared to the positive control using RM one-way ANOVA (with the Geisser-Greenhouse correction). p < 0.05 was considered significant. *p < 0.05; **p < 0.01; ***p < 0.001. EBV^+HL, EBV^+ Hodgkin lymphoma, EBV^+nHL, EBV^+ non-Hodgkin lymphoma, Pos. Ctrl., positive control. TEXT PRINTED IN THE PICTURE: (E) Pos. Ctrl.: 81.4 μM | (E) GTDPHLPTL: 167.7 μM | (E) GGDPHLPTL: 162 μM | (E) GGDPPLPTL: 153.8 μM | (E) GIDPHLPTL: 313.9 μM | (E) GCDPHLPTL: 304.8 μM | (E) GDDPHLPTL: 370.3 μM | (E) GAGPHLPTL: 317.1μM | (E) GGDPHVPTL: 759 μM | (E) GSDPHLPTL: 613.9 μM | (E) GGDPHLPPL: 682 μM | (E) GGDTPLPTL: 1110 μM | (F) Pos. […] The y-axis titles are 'HLA-E upregulation' (E) and 'NKG2A+NKG2C- NK cell inhibition' (F). / Panels A–D: the percentages and counts (e.g. 44.8%, 43/96) are frequencies of peptide variants in patient cohorts, not results for a substance, and are left out.
As usually defined, the EC50 is the concentration needed to bring the measured effect to its halfway point. For GAGPHLPTL [GAGPHLPTL], the EC50 stood at 317 µM.
In the case of GCDPHLPTL [GCDPHLPTL], the EC50 is 305 µM.
Same read-out and setting: then GDDPHLPTL [GDDPHLPTL], with 370 µM; and GGDPHLPPL [GGDPHLPPL], with 682 µM; and GGDPHLPTL [GGDPHLPTL], with 162 µM.
With GGDPHVPTL [GGDPHVPTL], the EC50 was determined as 759 µM.
As to GGDPPLPTL [GGDPPLPTL], the EC50 was 154 µM.
Same read-out and setting: then GGDTPLPTL [GGDTPLPTL], with 1110 µM.
Turning to GIDPHLPTL [GIDPHLPTL], the 50% effective concentration (EC50) came out at 314 µM.
As for GSDPHLPTL [GSDPHLPTL], the EC50 was determined as 614 µM.
The same measure, in the same setting: then GTDPHLPTL [GTDPHLPTL], with 168 µM.

A further assay deals with EBV-infected K562-CR2-HLA-E*0103/0103 cells. The assay can be described thus: Cell proliferation assay, K562-CR2-HLA-E*0103/0103. The assay is classed as cell-based, human. The note with it: GGDPHLPTL-pulsed (300 µM) K562-CR2-HLA-E*0103/0103 with NKG2A+NKG2C- or NKG2A+NKG2C+ NK cells, Monalizumab 10 µg/mL; Figure 2H. Here is the method:
(§1) For the cell proliferation assays MHC-I-deficient K562-CR2, K562-CR2-HLA-E*0103/0103 or K562-CR2-HLA-E*0101/0101 target cells were established and maintained as described before ([16]). The cells were then always infected with the marmoset B-lymphoblastoid cell line B95-8 derived EBV-strain, which encodes for the GGDPHLPTL LMP-1 variant, (MOI=1) ([16]) for 3 days. Sorted NKG2C^-NKG2A^+, NKG2C^+NKG2A^- and NKG2C^+NKG2A^+ NK cells were used as effector cells and were quickly thawed at 37°C, washed, and pre-activated overnight in RPMI, 10% FCS, 1% L-glutamine, 10 ng/ml IL-12 and 100 ng/ml IL-18 at 37°C. The NK cells were then harvested by centrifugation at 400xg for 5 minutes and washed once with Opti-MEM. […] All cells were then harvested, fixed with the FIX & PERM Cell Fixation & Cell Permeabilization Kit (Thermo-Scientific) and analysed by flow-cytometry, as described below. […]
(§2) Figure 2 HLA-E variants are associated with the development of EBV^+ lymphomas and inhibit NKG2A^+ NK cells. […] (E) Enriched NKG2A^+NKG2C^- NK cells were co-cultured with EBV-infected K562-CR2, K562-CR2-HLA-E*0103/0103 or K562-CR2-HLA-E*0101/0101 cells and were subsequently analyzed by flow-cytometry. […] Viable EBV-infected K562-CR2-HLA-E*0103/0103 or K562-CR2-HLA-E*0101/0101 cells or enriched NKG2A^+NKG2C^- NK cells was subsequently analysed by flow-cytometry. […]
As to B1, the “EBV-infected K562-CR2 cell dissemination on blocking of NKG2A” value was “reduction”.

Another assay concerns EBV-infected K562-CR2-HLA-E*0101/0101 cells. The assay can be described thus: Cell proliferation assay, K562-CR2-HLA-E*0101/0101. It counts as cell-based, human. The note with it: GGDPHLPTL-pulsed (300 µM) K562-CR2-HLA-E*0101/0101 with NKG2A+NKG2C- or NKG2A+NKG2C+ NK cells, Monalizumab 10 µg/mL; Figure 2H. On the procedure:
as §1, §2
As for B1, the “EBV-infected K562-CR2 cell dissemination on blocking of NKG2A” value is “reduction”.

For the origin of these results see PMC10324562, “Inhibitory NKG2A^+ and absent activating NKG2C^+ NK cell responses are associated with the development of EBV^+ lymphomas” (Frontiers in Immunology, 2023).
